Assay results reported in patent US20250186403A1 (ARIZONA BOARD OF REGENTS ON BEHALF OF THE UNIVERSITY OF …, priority 2022, published 2025).
Several values for one entry are separate records, joined by “and”; a condition that tells them apart may be missing. Identical values can stand only once. Like-named read-outs stand apart in the source and are kept apart here.

Key:
[1] = 7-day toxicity study in mice; format: in vivo, BALB/c mice; set-up: key to Movement score (first line, r17) / Movement score (second line, r19): 0 = Normal; 1 = slight incoordination/decreased righting response; 2 = tiptoe walking or altered gait involving 1 limb; 3 = staggering or paralysis or tremors of 2 or more limbs; key to Coat condition score: 0 = normal/groomed; 1 = rough; 2 = ruffled/unkempt; key to Posture score: 0 = normal; 1 = slightly hunched; 2 = moderately hunched; 3 = severally hunched; settings: for Coat condition score / Death / Movement score (first line, r17) / Movement score (second line, r19) / Posture score / Seizure: individual mice
Experimental: FIGS. 4A, 4B, and 4C show in vitro and in vivo toxicity. […] A549 and RAW 264.7 cells were grown in 96 well plates till 70% confluent. RAW 264.7 cells were differentiated into macrophages using PMA. […] The cell viability was estimated by Cell Counting Kit-8 (GlpBio, CA, USA), and absorbance was read at 450 nm using microplate reader Synergy H1 (BioTek). CC50 was calculated by GraphPad prism. […] Abs: absorbance. […] Bodyweight and other parameters were monitored daily (Table 3).
The mice were observed twice daily for general health, movement, activity, and coat condition and scored. Food and water were ad libitum. On day 7, the mice were euthanized, and necropsy was done to see any changes in the organs as compared to the normal mice by visual observation.

[2] = tested on: Cga split-cfGFP-Prp8 intein protein; assay: Split GFP-Prp8 intein splicing assay (SDS-PAGE); format: biochemical, Cryptococcus gattii; settings: vs DMSO control, 30 μM protein, 24 h
Experimental: TCEP is added to a final concentration of 100 µM and incubated for 24 h. The substrate Nano-Glo luciferase (Promega) was added, and the resulting luminescence was read. IC50 was calculated using GraphPad prism. […] TCEP was added to a concentration of 1 mM and incubated for 24 h. From this reaction mixture, 10 μl was mixed with an equal volume of 2×SDA-PAGE loading dye and loaded onto 12% SDS-PAGE gel without boiling the sample. The gel was scanned with UV using Chemidoc (Bio Rad), and band intensities were quantified using Image Lab software. […] Cells were harvested and washed in PBS, lysed with bead lyser, and centrifuged at 10,000 rpm. An equal quantity of protein (50 μg) from each treatment was loaded onto 12% SDS-PAGE and blotted onto the NC membrane, blocked with 5% skimmed milk. The membrane was probed with anti-prp8 intein rabbit polyclonal sera, followed by goat anti-rabbit HRP antibody. Signals were developed using a chemiluminescent kit. The density of the spliced intein bands (˜20 kDa) were quantified using Image lab software. A band at ˜130 kDa is uncharacterized, as explained below. NC: nitrocellulose. Abs: absorbance […]
TCEP to a final concentration of 1 mM was added to induce splicing and further incubated at RT for 24 h. […] The band densities were quantified using image lab software.

[3] = tested on: C. neoformans (Cne-Mut), inteinless mutant strain; assay: MIC by microdilution method; format: cell-based; settings: Cryptococcus neoformans, 48 h
Experimental: (§1) Serial double dilution of the CMN was done in the RPMI-MOPS medium. Freshly grown fungal culture from the SD agar plate was resuspended in sterile water and diluted to get 0.1 OD at 600 nm. […] The plates were incubated at 30° C. for 48 h. Plates were checked for growth by visual observation. For Afu, resazurin was added to 44 µM and incubated for 12 h at 37° C. before noting a change in color from blue to pink by live cells. MIC is defined as the minimum concentration at which there is no growth when observed visually.

C. gattii (NIH444) = assay: MIC by microdilution method; format: cell-based; settings: Cryptococcus gattii, visual, 48 h, 30° C.
Experimental: as §1

C. amylolentus = assay: MIC by microdilution method; format: cell-based
Experimental: as §1

C. neoformans (Cne-WT) = assay: MIC by microdilution method; format: cell-based; settings: Cryptococcus neoformans, 48 h
Experimental: as §1

[4] = CMN 5 mg/kg BW oral daily 7 days
[5] = CMN 10 mg/kg BW oral daily 7 days
[6] = CMN 20 mg/kg BW oral daily 7 days
[7] = CMN 40 mg/kg BW oral daily 7 days

CNc1ccc2oc(C[C@H]3O[C@@]4(CC[C@H]3C)O[C@H]([C@H](C)C(=O)c3ccc[nH]3)[C@H](C)C[C@H]4C)nc2c1C(=O)O [CMN, calcimycin]
other morbidity ([1]; 40 mg/ml daily oral gavage, 7 days): no other morbidity was observed | loss of body weight ([1]; 40 mg/ml daily oral gavage, by day 7): 8% | activity of mice ([1]; 40 mg/ml, for 1-2 h post-dosing): slower | Coat condition score [1, 4]: 0 | Death [1, 4]: 0 | Movement score (first line, r17) [1, 4]: 0 | Movement score (second line, r19) [1, 4]: 0 | Posture score [1, 4]: 0 | Seizure [1, 4]: 0 | Coat condition score [1, 5]: 0 | Death [1, 5]: 0 | Movement score (first line, r17) [1, 5]: 0 | Movement score (second line, r19) [1, 5]: 0 | Posture score [1, 5]: 0 | Seizure [1, 5]: 0 | Coat condition score [1, 6]: 0 | Death [1, 6]: 0 | Movement score (first line, r17) [1, 6]: 0 | Movement score (second line, r19) [1, 6]: 0 | Posture score [1, 6]: 0 | Seizure [1, 6]: 0 | Coat condition score [1, 7]: 0 | Death [1, 7]: 0 | Movement score (first line, r17) [1, 7]: 1 | Movement score (second line, r19) [1, 7]: 0 | Posture score [1, 7]: 0 | Seizure [1, 7]: 0 | change in activity, appearance of fur, weight loss ([1]; daily oral gavage at 5, 10, 20 mg/ml, 7 days): no significant change | splicing of split GFP-Prp8 intein [2]: inhibited with CMN dose-dependently | MIC [3]: 25.1 µg/mL and 48 µM | MIC (C. gattii (NIH444)): 1.5 µg/mL and 3 µM | MIC (C. amylolentus; C. amylolentus, visual, 48 h, 30° C.): > 26.1 µg/mL and > 50 µM | growth inhibition (C. amylolentus; natural inteinless cryptococcal sp. Cam): no inhibition was observed | MIC (C. neoformans (Cne-WT)): 1.5 µg/mL | MIC (C. neoformans (Cne-WT); Cne-WT, visual, 30° C., read-out: MIC): 3 µM
